Laboratory results as given in ChEMBL document CHEMBL5120921, “Newly Discovered Peptides from the Coral Heliofungia actiniformis Show Structural and Functional Diversity” (J Nat Prod, 2022).
Bridge positions count the residues as written; N and C are the ends. Peptide text beside a SMILES is read from it.

Tests used:
Type in all cases: toxicity
[1] = (§1) Cytotoxicity against human 1BR.3.GN cells assessed as cell proliferation at 50 nM measured after 4 days by xCELLigence based analysis relative to control; settings: 1BR.3.GN cells, time 4 day, read-out: Activity
1BR.3.GN [2] = assay: as §1; settings: 1br.3.gn, 96 h, 0.05 µM, time 4 day
1BR.3.GN [3] = assay: Cytotoxicity against human 1BR.3.GN cells assessed as cell proliferation at 1250 nM measured after 4 days by xCELLigence based analysis; settings: 96 h, 1.25 µM, time 4 day

Row | Compound | viability at 96 h, 0.05 µM [1] | Activity (1BR.3.GN [2]) | Activity (1BR.3.GN [3])
1 | CC[C@H](C)[C@H](NC(=O)[C@@H]1CSSC[C@@H]2NC(=O)[C@H](Cc3ccccc3)NC(=O)[C@H](CO)NC(=O)[C@H](CCCNC(=N)N)NC(=O)[C@@H]3CSSC[C@H](NC(=O)[C@H](CCCCN)NC(=O)[C@H](CCC(N)=O)NC(=O)[C@H](CC(=O)O)NC(=O)[C@@H]4CCCN4C2=O)C(=O)N[C@@H](CC(C)C)C(=O)N[C@@H](CCCCN)C(=O)N[C@@H](CC(=O)O)C(=O)N[C@@H](CSSC[C@H](N)C(=O)N[C@@H](C)C(=O)N2CCC[C@H]2C(=O)N[C@@H](CCC(=O)O)C(=O)N3)C(=O)NCC(=O)N1)C(=O)O (H-CAPECRSFCPDQKCLKDCGCI-OH; disulfide 1-18, 5-14, 9-20) | > 15% | – | –
2 | H-FNPVGVAFKGNNGKYLSRIHRSGIDYTEFAKDNTD-OH | – | Non-Toxic | Non-Toxic
